Results from ChEMBL document CHEMBL1140609, “Carbonic anhydrase inhibitors. Inhibition of transmembrane isozymes XII (cancer-associated) and XIV with anions” (Bioorg Med Chem Lett, 2007).

Legend:
Carbonic anhydrase 12 = Carbonic anhydrase 12 (Homo sapiens, UniProt O43570); assay: Inhibition of human recombinant catalytic domain CA12
Carbonic anhydrase 14 = Carbonic anhydrase 14 (Homo sapiens, UniProt Q9ULX7); assay: Inhibition of human recombinant full length CA14
Carbonic anhydrase 9 = Carbonic anhydrase 9 (Homo sapiens, UniProt Q16790); assay: Inhibition of human recombinant catalytic domain CA9

Sequence of Carbonic anhydrase 12 (O43570 whole entry, the tested form may be a part): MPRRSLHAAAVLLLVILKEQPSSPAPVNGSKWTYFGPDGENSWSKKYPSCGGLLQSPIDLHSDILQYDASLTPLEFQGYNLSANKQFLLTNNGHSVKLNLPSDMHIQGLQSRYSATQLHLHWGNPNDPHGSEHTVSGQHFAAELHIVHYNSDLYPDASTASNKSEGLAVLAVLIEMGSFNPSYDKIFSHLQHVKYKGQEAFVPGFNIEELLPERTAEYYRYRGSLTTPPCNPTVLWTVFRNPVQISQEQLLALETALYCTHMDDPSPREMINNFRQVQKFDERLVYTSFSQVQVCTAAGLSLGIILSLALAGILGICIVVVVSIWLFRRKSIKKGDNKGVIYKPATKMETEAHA
Sequence of Carbonic anhydrase 14 (Q9ULX7 whole entry, the tested form may be a part): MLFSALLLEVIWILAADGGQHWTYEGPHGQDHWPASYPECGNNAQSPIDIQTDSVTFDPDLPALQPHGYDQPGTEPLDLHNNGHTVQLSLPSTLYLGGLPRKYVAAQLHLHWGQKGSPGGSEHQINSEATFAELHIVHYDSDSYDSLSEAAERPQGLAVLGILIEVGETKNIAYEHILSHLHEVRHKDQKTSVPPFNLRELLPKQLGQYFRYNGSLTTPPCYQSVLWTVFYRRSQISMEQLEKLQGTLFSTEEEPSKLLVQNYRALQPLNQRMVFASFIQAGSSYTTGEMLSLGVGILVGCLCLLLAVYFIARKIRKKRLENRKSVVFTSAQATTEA

## OB(O)c1ccccc1 [PHENYLBORONIC ACID]
Carbonic anhydrase 12
  Ki: 800 µM
Carbonic anhydrase 14
  Ki: 92 µM

## NS(=O)(=O)O [SULFAMATE]
Carbonic anhydrase 9
  Ki: 92 µM
Carbonic anhydrase 12
  Ki: 700 µM
Carbonic anhydrase 14
  Ki: 1090 µM

## NS(N)(=O)=O [SULFAMIDE]
Carbonic anhydrase 12
  Ki: 830 µM
Carbonic anhydrase 14
  Ki: 750 µM
